From publication PMC12040169 (PLOS Biology, 2025) come the findings set out here.

Molecules are shown by their SMILES.

Data set [1] concerns T1, CTL2-GFP (C. trachomatis L2/434/Bu, GFP-expressing).
T1 construct: L2/434/Bu, GFP-expressing
Briefly: microbe, parasite or virus in culture. Also on record: Intracellular C. trachomatis growth in HeLa cells, bulk GFP fluorescence relative to DMSO. To be noted: Chlamydia trachomatis, HeLa, 28.5 h; bulk GFP, mean of 2; read-out: % of control remaining. The protocol: MICs were calculated as described above.

Data set [2] in a line: in vitro. Also on record: Viability of infected HeLa host cells, resazurin conversion, bulk resorufin fluorescence relative to DMSO. The following applies: human, hela cells; bulk resorufin, mean of 2.
The test system of data set [3] is T2, C. trachomatis L2/434/Bu expressing GFP (CTL2-GFP).
T2 construct: L2/434/Bu GFP intracellular growth in HeLa cells
Briefly: microbe, parasite or virus in culture. On the set-up: C. trachomatis total inclusion area by high-content imaging, normalised to DMSO. The following applies: Chlamydia trachomatis, HeLa, 28.5 h; total inclusion area; read-out: % of control remaining. In outline:
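After bulk GFP and resorufin reads, fixed cells were Hoechst-stained and imaged to count chlamydial inclusions and host nuclei. Total inclusion area and number tracked bacterial growth, and nuclei number tracked host viability. MICs were derived, and 36,785 drug-like molecules were screened this way.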

Data set [4] in a line: in vitro. The following applies: human, hela cells, % viability.

As to `CC(Nc1cc(N2CCN(CCO)CC2)ccc1[N+](=O)[O-])c1ccc(Br)cc1` (stereo not shown) [CBK041273], in data set [1], the activity at 1 µM was determined as 139%, the activity at 5 µM was 130% and the activity at 10 µM came to 93.8%. Moreover, in the data set “in vitro [2]”, the viability (usually a read-out of living cells in per cent, often relative to untreated cells) at 28.5 h, 1 µM stood at 91.4%; the viability at 28.5 h, 5 µM amounted to 94.5%; the viability at 28.5 h, 10 µM amounted to 96.3%. Also, in data set [3], the activity at 1 µM worked out at 130%, the activity at 5 µM turned out to be 81.9% and the activity at 10 µM stood at 47.4%. The viability at 28.5 h, 10 µM in “in vitro [4]” stood at 103%.
Take `CCc1cc(Br)ccc1S(=O)(=O)NC(CC)COC` (stereo not shown) [CBK045265]: in data set [1], the activity at 1 µM came to 138%, the activity at 5 µM is 114% and the activity at 10 µM was 140%. Also, in “in vitro [2]”, the viability at 28.5 h, 1 µM is 100%; the viability at 28.5 h, 5 µM was found to be 99%; the viability at 28.5 h, 10 µM was 96.5%. For the same compound, in data set [3], the activity at 1 µM is 117%, the activity at 5 µM amounted to 106% and the activity at 10 µM amounted to 97.7%. The viability at 28.5 h, 10 µM in the data set “in vitro [4]” turned out to be 88.1%.
In the case of `c1ccc(-c2nnc3ccccc3c2N2CCNCC2)cc1` [CBK066888], in data set [1], the activity at 1 µM was found to be 125%, the activity at 5 µM came out at 82.9% and the activity at 10 µM came out at 27.1%. Moreover, in “in vitro [2]”, the viability at 28.5 h, 1 µM was determined as 114%; the viability at 28.5 h, 5 µM came out at 106%; the viability at 28.5 h, 10 µM came out at 105%. In data set [3], the activity at 1 µM is 97.7%, the activity at 5 µM was determined as 46% and the activity at 10 µM is 0.17%. The viability at 28.5 h, 10 µM in the data set “in vitro [4]” turned out to be 107%.
On to `OC(COc1ccc(Br)cc1)CN1CCCN(c2nc3ccc(Cl)cc3s2)CC1` (stereo not shown) [CBK074643], for which, in data set [1], the activity at 1 µM came to 137%, the activity at 5 µM came to 114% and the activity at 10 µM amounted to 43.8%. For the same compound, in “in vitro [2]”, the viability at 28.5 h, 1 µM amounted to 86.1%; the viability at 28.5 h, 5 µM stood at 88.1%; the viability at 28.5 h, 10 µM came to 88%. In data set [3], the activity at 1 µM stood at 121%, the activity at 5 µM worked out at 82.4% and the activity at 10 µM was determined as 11.3%. Also, the viability at 28.5 h, 10 µM in the data set “in vitro [4]” was 93.5%.
As to `O=C(Nc1ccccc1C(=O)Nc1nnc(C(F)(F)F)s1)c1ccccc1Cl` [CBK076900], in data set [1], the activity at 1 µM was 130%, the activity at 5 µM is 90.8% and the activity at 10 µM was found to be 45.1%. In addition, in the data set “in vitro [2]”, the viability at 28.5 h, 1 µM came out at 94.7%; the viability at 28.5 h, 5 µM amounted to 97%; the viability at 28.5 h, 10 µM turned out to be 84.6%. Moreover, in data set [3], the activity at 1 µM was found to be 113%, the activity at 5 µM stood at 64.7% and the activity at 10 µM turned out to be 63.4%. Moreover, the viability at 28.5 h, 10 µM in the data set “in vitro [4]” was 76.9%.
On to `N#CCCCN1CCC(Oc2cncc(OCc3ccc(Cl)c(Cl)c3)n2)C1` (stereo not shown) [CBK084436], for which, in data set [1], the activity at 1 µM is 127%, the activity at 5 µM came to 81.2% and the activity at 10 µM is 52.7%. In the data set “in vitro [2]”, the viability at 28.5 h, 1 µM turned out to be 95.4%; the viability at 28.5 h, 5 µM was found to be 102%; the viability at 28.5 h, 10 µM came to 99.4%. In addition, in data set [3], the activity at 1 µM was determined as 118%, the activity at 5 µM was 74.4% and the activity at 10 µM came to 32.6%. The viability at 28.5 h, 10 µM in the data set “in vitro [4]” is 96.1%.
With `COc1ccc(N2CCN(C(=O)c3ccc([N+](=O)[O-])o3)CC2)cc1` [CBK091410], in data set [1], the activity at 1 µM was 106%, the activity at 5 µM came to 55.2% and the activity at 10 µM was found to be 16%. Moreover, in the data set “in vitro [2]”, the viability at 28.5 h, 1 µM is 106%; the viability at 28.5 h, 5 µM stood at 110%; the viability at 28.5 h, 10 µM was found to be 125%. Besides, in data set [3], the activity at 1 µM is 128%, the activity at 5 µM is 64.3% and the activity at 10 µM worked out at 20.7%. Also, the viability at 28.5 h, 10 µM in “in vitro [4]” is 105%.
